Measurements: PMC10665234, “Nutritional Supplementation and Enhanced Antioxidant Function by Dietary Intake of Selenoneine and Other Selenium Compounds in Red Seabream Pagrus major” (Marine Biotechnology (New York, N.y.), 2023)

How the values were obtained:
[1] = Uptake factor of selenoneine from feed (ratio of concentration in muscle or blood cells to feed); type: in vivo, red seabream Pagrus major; details: artificial feed containing selenoneine at 0.1–2 mg Se/kg
Experimental: Uptake factor is defined as a ratio of selenoneine concentration in muscle or blood cells to those in feed, and is the same as the biomagnification factor (Yamada et al. [1994]). Thus, uptake factor is an indicator showing the degree of accumulation of selenoneine in muscle or blood cells by dietary intake of feed. The uptake factor was calculated by the following equation on the equilibrium period of the dietary exposure experiments:
Uptake factor = ((Cen − Cb) / CF) × 10^–3where Cen is selenoneine concentration in muscle or blood cells of fish fed with selenoneine-contained feed (ng/kg), Cb is selenoneine concentration in muscle or blood cells of the control fish (ng/kg wet), and CF is the selenoneine concentration in the contained feed (μg/kg).

[2] = Selenoneine concentration in white muscle and blood cell by HPLC-ICP-MS (82Se); type: in vivo, red seabream Pagrus major; details: for Selenoneine concentration, blood cell / Selenoneine concentration, white muscle: fish cultured for 4 weeks
Experimental: (§1) Red seabream fry (average body weight of 5.4 g) was obtained from private seed and seedling production company (Oita, Japan) and cultured for seven months up to average body weight of 250 g. Chemical composition of control diet was containing crude protein 50%; […]; Ca 2.3%; ash 16.0%; and phosphorus 1.5%. Each selenium-added diet was fed twice a day for 4 weeks in an amount of 1% of the average body weight. Body weight of fish in each tank was measured when fish were sampled and amount of diet was calculated according to the body weight of every sampling day. The added selenium concentrations in the diets were set in 0 ppm, 1 ppm, and 2 ppm selenium according to the previous study (Tohfuku et al. [2021]). After that, they were fed a commercial diet twice a day for 1 week. The test groups were the control group, the sodium selenite group (1 mg Se/kg feeding group and 2 mg Se/kg feeding group), the selenomethionine group (1 mg Se/kg feeding group and 2 mg Se/kg feeding group), and the selenoneine group (1 mg Se/kg feeding group and 2 mg Se/kg feeding group) were set. The number of fish raised was 15 from the start of rearing in each tank until the 2nd week, 10 from the 3rd to 4th week, and 5 in the 5th week. […] We reared red seabream by feeding of 1% dry pellet containing of sodium selenite, selenomethionine, or selenoneine of body weight twice a day for 4 weeks. After that, we replaced to 1% of commercial dry pellet of body weight twice a day for 1 week from the selenium supplementation. Average water temperature was 20.9 ℃ (19.0–23.9 ℃) and average dissolved oxygen was 7.41 mg/L. The body weight change of red seabream for 5 weeks is shown in Table S2.
(§2) Red seabream was anesthetized by adding 2 mL of anesthetic (1/100 volume of 2-methylquinoline dissolved in ethanol) to 1 L of seawater. A small amount of an anticoagulant (heparin sodium dissolved in physiological saline; 800 units/mL) was placed in a syringe in advance, and blood was collected from the caudal peduncle of each fish. The collected blood was centrifuged at 5000 rpm for 5 min (4 °C), divided into a plasma fraction and a precipitated fraction, and stored at − 50 °C. The precipitated fraction was used for analysis as the blood cell fraction.
Selenoneine was separated by chromatography using a Shodex GF-310 column (4.5 mm × 150 mm; Showa Denko, Tokyo, Japan) equilibrated with 100 mM ammonium formate buffer containing 0.1% (w/v) Igepal CA-630 (MP Biomedicals, CA, USA). The injection volume was at 10 μL. The mobile phase delivered at 0.5 mL/min isocratically. ^82Se was detected with high performance liquid chromatography inductively coupled plasma mass spectrometry (HPLC-ICP-MS; Agilent 1100 Series and Agilent 7500 Series, Agilent Technology) (Yamashita and Yamashita [2010]). During separation, selenoneine was eluted at a retention time of 200 s, and the selenium concentration was determined using selenoneine as a standard.

[3] = Total selenium concentrations in the tissues of red seabream after feeding selenium-supplemented dry pellet (fluorometric assay with 2,3-diamino-naphthalene); type: in vivo, red seabream Pagrus major
Experimental: as §1, §2
Total selenium concentration was determined by fluorometric assay with 2,3-diamino-naphthalene, after digestion in 1.5 mL of nitric acid and perchloric acid (1:2 in volume) at 200–220 ℃ (Watkinson [1966]; Yamashita and Yamashita [2010]).

yellowtail = tested on: yellowtail; design: method as in Our unpublished research; details: ref Our unpublished research; cited from earlier work
red seabream = assay: Oxidation-reduction potential (ORP) in white muscle; type: in vivo, red seabream Pagrus major; details: 2 weeks; 1 or 2 ppm in diet
Experimental: ORP was measured with ORP electrode (9300, Horiba, Kyoto, […]). The electrode was pierced into muscle and pressed gently until the potential stabilized for 60 s.

[4] = 5 weeks (4 weeks supplementation, then 1 week commercial diet), diet 1 mg Se/kg added
[5] = 5 weeks (4 weeks supplementation, then 1 week commercial diet), diet 2 mg Se/kg added

Compound: C[N+](C)(C)[C@@H](Cc1cnc([Se-])[nH]1)C(=O)O [Selenoneine, 2-selenyl-Nα, Nα, Nα-trimethyl-L-histidine]
- Uptake factor of selenoneine in the blood ([1]; blood (blood cells)): 4.0
- Uptake factor of selenoneine in the white muscle ([1]; white muscle): 0.0062
- Selenoneine as share of total selenium in blood cell ([2]; blood cell, 4 weeks): more than 63%
- Selenoneine concentration, blood cell ([2]; blood cell, diet 1 mg Se/kg added): 4.72 ± 1.06 mg Se/kg
- Selenoneine concentration, blood cell ([2]; blood cell, diet 1 mg Se/kg added, listed as selenoneine): 4.72 ± 1.06 mg Se/kg
- Selenoneine concentration, blood cell ([2]; blood cell, diet 2 mg Se/kg added): 10.29 ± 3.14 mg Se/kg
- Selenoneine concentration, blood cell ([2]; blood cell, diet 2 mg Se/kg added, listed as selenoneine): 10.29 ± 3.14 mg Se/kg
- Selenoneine as share of selenium in white muscle ([2]; white muscle, 4 weeks): 4.6–7.0%
- Selenoneine concentration, white muscle ([2]; white muscle, diet 1 mg Se/kg added): 0.025 ± 0.003 mg Se/kg
- Selenoneine concentration, white muscle ([2]; white muscle, diet 1 mg Se/kg added, listed as selenoneine): 0.025 ± 0.003 mg Se/kg
- Selenoneine concentration, white muscle ([2]; white muscle, diet 2 mg Se/kg added): 0.030 ± 0.007 mg Se/kg
- Selenoneine concentration, white muscle ([2]; white muscle, diet 2 mg Se/kg added, listed as selenoneine): 0.030 ± 0.007 mg Se/kg
- Selenoneine concentration in white muscle ([2]; white muscle, selenoneine 1 mg Se/kg administration group): 25.4 ± 3.2 µg Se/kg
- Selenoneine concentration in white muscle ([2]; white muscle, selenoneine 2 mg Se/kg administration group): 30.0 ± 6.6 µg Se/kg
- Ratio of selenium used in selenoneine in white muscle ([2]; white muscle, selenoneine 2 ppm administration group): about 7.0%
- Total selenium content, blood cell ([3]; 2 weeks, diet 1 mg Se/kg added): 3.98 ± 1.00 mg Se/kg
- Total selenium content, blood cell ([3]; 2 weeks, diet 2 mg Se/kg added): 9.28 ± 1.67 mg Se/kg
- Total selenium content, blood cell ([3]; 4 weeks, diet 1 mg Se/kg added): 5.93 ± 1.00 mg Se/kg
- Total selenium content, blood cell ([3]; 4 weeks, diet 2 mg Se/kg added): 9.94 ± 2.05 mg Se/kg
- Total selenium content, blood cell [3, 4]: 4.70 ± 0.53 mg Se/kg
- Total selenium content, blood cell [3, 5]: 9.10 ± 1.48 mg Se/kg
- Total selenium content, brain ([3]; 2 weeks, diet 1 mg Se/kg added): 0.48 ± 0.02 mg Se/kg
- Total selenium content, brain ([3]; 2 weeks, diet 2 mg Se/kg added): 0.50 ± 0.04 mg Se/kg
- Total selenium content, brain ([3]; 4 weeks, diet 1 mg Se/kg added): 0.55 ± 0.06 mg Se/kg
- Total selenium content, brain ([3]; 4 weeks, diet 2 mg Se/kg added): 0.56 ± 0.05 mg Se/kg
- Total selenium content, brain [3, 4]: 0.48 ± 0.09 mg Se/kg
- Total selenium content, brain [3, 5]: 0.47 ± 0.04 mg Se/kg
- Tissues in which total selenium was accumulated compared with the control group ([3]; diet 1 mg Se/kg): white muscle, kidney, spleen, hepatopancreas, brain, and blood cell
- Tissues in which total selenium was accumulated compared with the control group ([3]; diet 2 mg Se/kg): white muscle, heart, kidney, spleen, hepatopancreas, brain, and blood cell
- Total selenium content, heart ([3]; 2 weeks, diet 1 mg Se/kg added): 1.11 ± 0.11 mg Se/kg
- Total selenium content, heart ([3]; 2 weeks, diet 2 mg Se/kg added): 1.32 ± 0.18 mg Se/kg
- Total selenium content, heart ([3]; 4 weeks, diet 1 mg Se/kg added): 1.16 ± 0.11 mg Se/kg
- Total selenium content, heart ([3]; 4 weeks, diet 2 mg Se/kg added): 1.19 ± 0.09 mg Se/kg
- Total selenium content, heart [3, 4]: 1.09 ± 0.15 mg Se/kg
- Total selenium content, heart [3, 5]: 1.28 ± 0.29 mg Se/kg
- Total selenium content, hepatopancreas ([3]; 2 weeks, diet 1 mg Se/kg added): 1.27 ± 0.18 mg Se/kg
- Total selenium content, hepatopancreas ([3]; 2 weeks, diet 2 mg Se/kg added): 1.51 ± 0.26 mg Se/kg
- Total selenium content, hepatopancreas ([3]; 4 weeks, diet 1 mg Se/kg added): 1.22 ± 0.14 mg Se/kg
- Total selenium content, hepatopancreas ([3]; 4 weeks, diet 2 mg Se/kg added): 1.35 ± 0.18 mg Se/kg
- Total selenium content, hepatopancreas [3, 4]: 1.34 ± 0.26 mg Se/kg
- Total selenium content, hepatopancreas [3, 5]: 1.40 ± 0.25 mg Se/kg
- Total selenium content, kidney ([3]; 2 weeks, diet 1 mg Se/kg added): 3.22 ± 0.18 mg Se/kg
- Total selenium content, kidney ([3]; 2 weeks, diet 2 mg Se/kg added): 3.46 ± 0.43 mg Se/kg
- Total selenium content, kidney ([3]; 4 weeks, diet 1 mg Se/kg added): 3.17 ± 0.40 mg Se/kg
- Total selenium content, kidney ([3]; 4 weeks, diet 2 mg Se/kg added): 4.03 ± 0.72 mg Se/kg
- Total selenium content, kidney [3, 4]: 2.96 ± 0.32 mg Se/kg
- Total selenium content, kidney [3, 5]: 3.51 ± 0.49 mg Se/kg
- Total selenium content, spleen ([3]; 2 weeks, diet 1 mg Se/kg added): 3.45 ± 0.56 mg Se/kg
- Total selenium content, spleen ([3]; 2 weeks, diet 2 mg Se/kg added): 4.69 ± 0.79 mg Se/kg
- Total selenium content, spleen ([3]; 4 weeks, diet 1 mg Se/kg added): 3.23 ± 0.37 mg Se/kg
- Total selenium content, spleen ([3]; 4 weeks, diet 2 mg Se/kg added): 5.20 ± 1.01 mg Se/kg
- Total selenium content, spleen [3, 4]: 3.15 ± 0.83 mg Se/kg
- Total selenium content, spleen [3, 5]: 3.16 ± 0.68 mg Se/kg
- Total selenium content, white muscle ([3]; 2 weeks, diet 1 mg Se/kg added): 0.39 ± 0.05 mg Se/kg
- Total selenium content, white muscle ([3]; 2 weeks, diet 2 mg Se/kg added): 0.35 ± 0.04 mg Se/kg
- Total selenium content, white muscle ([3]; 4 weeks, diet 1 mg Se/kg added): 0.40 ± 0.05 mg Se/kg
- Total selenium content, white muscle ([3]; 4 weeks, diet 2 mg Se/kg added): 0.43 ± 0.04 mg Se/kg
- Total selenium content, white muscle [3, 4]: 0.38 ± 0.04 mg Se/kg
- Total selenium content, white muscle [3, 5]: 0.38 ± 0.03 mg Se/kg
- ORP after dietary intake (yellowtail): reduced ORP and approached the ORP of wild fish
- ORP in white muscle compared to control (red seabream): reduced ORP
